From ChEMBL document CHEMBL5346945, “Discovery and Optimization of the First ATP Competitive Type-III c-MET Inhibitor” (J Med Chem, 2023)

How the values were obtained:
[1] = Lipophilicity, logD of compound in octanol and water at pH 7.4 measured by shake-flask method; assay type: physicochemical
[2] = biological target: T1, Hepatocyte growth factor receptor (Homo sapiens, UniProt P08581); assay: Binding affinity to wild type c-MET (unknown origin) assessed as dissociation constant measured for 120 sec by SPR analysis
[3] = Metabolic stability in human liver microsomes assessed as intrinsic clearance at 1 uM preincubated with NADPH for 8 mins followed by compound addition measured at 0.5 to 30 mins by LC-MS/MS analysis; assay type: ADME, Microsome; conditions: time 0.5-30 min, read-out: CLH
[4] = Metabolic stability in Han Wistar rat hepatocytes assessed as intrinsic clearance measured per million cells at 1 uM measured at 0.5 to 2 hrs by LC-MS/MS analysis; assay type: ADME, cell-based, Hepatocyte; conditions: time 0.5-2 hrs, read-out: CLH
[5] = biological target: T1, Hepatocyte growth factor receptor; assay: Inhibition of wild type c-MET (unknown origin) using ATP and poly(L-glutamic acid-L-tyrosine) as substrate incubated for 60 mins measured by ADP-Glo kinase assay
[6] = Permeability across basolateral to apical side in MDCK cells at 10 uM by LC-MS/MS analysis; assay type: ADME, cell-based, Canis lupus familiaris; conditions: dog, read-out: permeability
[7] = Volume of distribution at steady state in Han Wistar rat plasma at 1 mg/kg, po or 0.5 mg/kg, iv measured for 1 to 24 hrs by LC-MS/MS analysis; assay type: ADME, organism-based; conditions: in vivo, time 1-24 hrs
[8] = Metabolic stability in human hepatocytes assessed as intrinsic clearance measured per million cells at 1 uM measured at 0.5 to 2 hrs by LC-MS/MS analysis; assay type: ADME, cell-based, Hepatocyte; conditions: time 0.5-2 hrs, read-out: CLH
[9] = Ratio of drug concentration in brain to plasma of Han Wistar rat plasma at 2 micromol/kg per hour measured after 4 hrs by LC-MS/MS analysis; assay type: ADME; conditions: dose 2 µmol/kg
[10] = Oral bioavailability in Han Wistar rat plasma at 1 mg/kg, measured for 1 to 24 hrs by LC-MS/MS analysis; assay type: ADME, organism-based; conditions: in vivo, time 1-24 hrs
[11] = biological target: T1, Hepatocyte growth factor receptor; assay: Inhibition of wild type c-MET in human NCI-H1993 cells incubated for 4 hrs measured by HTRF assay; assay type: cell-based
[12] = biological target: T1, Hepatocyte growth factor receptor; conditions: dose 100.0 nM
Description: Inhibition of c-MET (unknown origin) at 100 nM relative to control

[13] = biological target: T2, Tyrosine-protein kinase Mer (Homo sapiens) (UniProt Q12866); conditions: dose 100.0 nM
T2 sequence (whole entry): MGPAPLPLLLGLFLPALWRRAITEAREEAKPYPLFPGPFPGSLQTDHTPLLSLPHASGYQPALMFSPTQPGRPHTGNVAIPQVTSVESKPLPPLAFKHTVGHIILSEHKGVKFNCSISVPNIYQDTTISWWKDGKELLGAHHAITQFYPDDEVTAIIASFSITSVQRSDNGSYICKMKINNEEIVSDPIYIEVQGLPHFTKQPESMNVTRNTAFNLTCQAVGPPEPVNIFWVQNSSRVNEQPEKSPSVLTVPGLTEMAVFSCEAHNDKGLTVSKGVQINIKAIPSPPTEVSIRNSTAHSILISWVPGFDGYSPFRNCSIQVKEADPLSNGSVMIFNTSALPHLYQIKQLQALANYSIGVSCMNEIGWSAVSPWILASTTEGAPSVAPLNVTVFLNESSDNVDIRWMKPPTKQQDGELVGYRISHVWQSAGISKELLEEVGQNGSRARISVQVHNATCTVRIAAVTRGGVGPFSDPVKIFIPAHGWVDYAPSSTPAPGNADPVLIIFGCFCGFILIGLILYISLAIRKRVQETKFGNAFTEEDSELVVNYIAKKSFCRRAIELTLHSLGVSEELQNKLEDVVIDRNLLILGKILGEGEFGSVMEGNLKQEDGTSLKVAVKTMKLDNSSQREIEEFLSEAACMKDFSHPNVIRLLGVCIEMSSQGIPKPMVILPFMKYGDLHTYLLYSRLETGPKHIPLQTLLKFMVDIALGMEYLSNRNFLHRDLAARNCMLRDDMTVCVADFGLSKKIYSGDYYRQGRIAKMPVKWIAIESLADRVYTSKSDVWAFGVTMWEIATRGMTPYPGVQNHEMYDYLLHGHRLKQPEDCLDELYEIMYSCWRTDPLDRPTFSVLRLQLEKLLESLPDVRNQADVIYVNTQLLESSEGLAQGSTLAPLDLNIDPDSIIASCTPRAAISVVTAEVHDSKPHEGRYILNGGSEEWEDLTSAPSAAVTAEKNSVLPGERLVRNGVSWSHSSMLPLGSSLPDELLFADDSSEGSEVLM
Description: Inhibition of MERTK (unknown origin) at 100 nM relative to control

[14] = biological target: Macrophage-stimulating protein receptor (Homo sapiens) (UniProt Q04912); conditions: dose 100.0 nM
Description: Inhibition of MST1R (unknown origin) at 100 nM relative to control

[15] = biological target: Tyrosine-protein kinase receptor UFO (Homo sapiens) (UniProt P30530); conditions: dose 100.0 nM
Tyrosine-protein kinase receptor UFO (Homo sapiens), sequence (P30530 whole entry): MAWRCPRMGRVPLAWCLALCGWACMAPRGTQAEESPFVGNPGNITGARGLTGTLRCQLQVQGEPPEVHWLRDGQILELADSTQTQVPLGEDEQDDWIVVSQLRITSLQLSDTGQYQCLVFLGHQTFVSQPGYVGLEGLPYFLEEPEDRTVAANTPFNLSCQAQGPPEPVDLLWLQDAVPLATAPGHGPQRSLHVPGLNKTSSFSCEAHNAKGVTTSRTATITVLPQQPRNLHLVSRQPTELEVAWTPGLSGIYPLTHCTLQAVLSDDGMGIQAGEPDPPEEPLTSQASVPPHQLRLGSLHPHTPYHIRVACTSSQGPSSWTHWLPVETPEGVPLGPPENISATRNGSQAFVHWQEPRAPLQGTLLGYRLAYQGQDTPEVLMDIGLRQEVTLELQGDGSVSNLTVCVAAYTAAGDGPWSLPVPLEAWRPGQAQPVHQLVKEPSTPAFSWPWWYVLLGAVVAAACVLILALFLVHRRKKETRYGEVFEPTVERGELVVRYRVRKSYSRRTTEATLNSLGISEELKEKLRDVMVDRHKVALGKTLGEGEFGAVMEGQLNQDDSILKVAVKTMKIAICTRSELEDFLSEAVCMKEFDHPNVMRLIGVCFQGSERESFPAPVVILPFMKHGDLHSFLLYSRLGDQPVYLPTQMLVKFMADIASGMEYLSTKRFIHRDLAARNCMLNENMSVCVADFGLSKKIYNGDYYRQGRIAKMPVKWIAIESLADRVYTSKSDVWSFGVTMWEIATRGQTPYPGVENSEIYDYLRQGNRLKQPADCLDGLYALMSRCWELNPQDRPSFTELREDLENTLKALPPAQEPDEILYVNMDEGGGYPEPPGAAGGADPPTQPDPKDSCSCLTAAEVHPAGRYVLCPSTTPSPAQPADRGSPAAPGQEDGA
Description: Inhibition of AXL (unknown origin) at 100 nM relative to control

T1 sequence (P08581 whole entry): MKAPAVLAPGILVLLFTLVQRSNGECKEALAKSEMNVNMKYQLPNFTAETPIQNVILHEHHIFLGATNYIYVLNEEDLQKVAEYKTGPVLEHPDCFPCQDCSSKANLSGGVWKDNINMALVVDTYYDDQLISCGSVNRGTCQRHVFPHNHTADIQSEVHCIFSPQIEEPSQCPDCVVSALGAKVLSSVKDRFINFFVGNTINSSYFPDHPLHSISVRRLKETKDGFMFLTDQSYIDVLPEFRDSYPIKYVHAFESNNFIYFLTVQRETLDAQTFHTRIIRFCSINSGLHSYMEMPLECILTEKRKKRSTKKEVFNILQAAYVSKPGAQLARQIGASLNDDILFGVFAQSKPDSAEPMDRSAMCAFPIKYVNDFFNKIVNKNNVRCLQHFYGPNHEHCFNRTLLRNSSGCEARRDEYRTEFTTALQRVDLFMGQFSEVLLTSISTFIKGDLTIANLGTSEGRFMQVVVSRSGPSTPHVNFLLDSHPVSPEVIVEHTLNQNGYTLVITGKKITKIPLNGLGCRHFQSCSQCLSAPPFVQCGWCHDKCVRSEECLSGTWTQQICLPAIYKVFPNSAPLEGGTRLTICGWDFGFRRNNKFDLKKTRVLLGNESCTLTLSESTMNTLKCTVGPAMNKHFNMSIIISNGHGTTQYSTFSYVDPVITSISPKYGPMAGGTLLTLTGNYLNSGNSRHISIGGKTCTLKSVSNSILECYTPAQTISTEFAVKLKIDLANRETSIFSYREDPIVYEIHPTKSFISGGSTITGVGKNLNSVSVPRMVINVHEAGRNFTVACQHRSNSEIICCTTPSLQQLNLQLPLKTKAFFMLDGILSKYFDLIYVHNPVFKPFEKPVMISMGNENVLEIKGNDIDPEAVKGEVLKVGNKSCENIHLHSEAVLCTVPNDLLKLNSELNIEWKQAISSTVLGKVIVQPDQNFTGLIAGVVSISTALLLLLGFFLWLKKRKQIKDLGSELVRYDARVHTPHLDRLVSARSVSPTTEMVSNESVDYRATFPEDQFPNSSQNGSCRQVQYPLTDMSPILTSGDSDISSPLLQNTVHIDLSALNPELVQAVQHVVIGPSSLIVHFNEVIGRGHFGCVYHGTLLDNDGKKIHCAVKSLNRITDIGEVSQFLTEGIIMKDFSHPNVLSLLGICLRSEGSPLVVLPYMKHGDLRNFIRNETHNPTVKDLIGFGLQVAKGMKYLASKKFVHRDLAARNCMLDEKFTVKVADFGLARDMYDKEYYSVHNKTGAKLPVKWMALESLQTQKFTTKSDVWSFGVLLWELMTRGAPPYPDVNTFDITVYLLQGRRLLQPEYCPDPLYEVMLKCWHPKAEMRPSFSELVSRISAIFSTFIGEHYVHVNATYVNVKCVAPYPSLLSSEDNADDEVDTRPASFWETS
Macrophage-stimulating protein receptor (Homo sapiens), sequence (Q04912 25-304 limits assumed): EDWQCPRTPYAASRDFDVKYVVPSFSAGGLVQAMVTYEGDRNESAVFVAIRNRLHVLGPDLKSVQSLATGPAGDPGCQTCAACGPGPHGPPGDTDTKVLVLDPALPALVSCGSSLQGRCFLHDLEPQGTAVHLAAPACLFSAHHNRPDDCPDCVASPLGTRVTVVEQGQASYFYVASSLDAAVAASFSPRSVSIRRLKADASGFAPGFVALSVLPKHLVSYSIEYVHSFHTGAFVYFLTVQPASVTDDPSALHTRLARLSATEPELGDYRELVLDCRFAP
Macrophage-stimulating protein receptor (Homo sapiens), sequence (Q04912 310-1400 limits assumed): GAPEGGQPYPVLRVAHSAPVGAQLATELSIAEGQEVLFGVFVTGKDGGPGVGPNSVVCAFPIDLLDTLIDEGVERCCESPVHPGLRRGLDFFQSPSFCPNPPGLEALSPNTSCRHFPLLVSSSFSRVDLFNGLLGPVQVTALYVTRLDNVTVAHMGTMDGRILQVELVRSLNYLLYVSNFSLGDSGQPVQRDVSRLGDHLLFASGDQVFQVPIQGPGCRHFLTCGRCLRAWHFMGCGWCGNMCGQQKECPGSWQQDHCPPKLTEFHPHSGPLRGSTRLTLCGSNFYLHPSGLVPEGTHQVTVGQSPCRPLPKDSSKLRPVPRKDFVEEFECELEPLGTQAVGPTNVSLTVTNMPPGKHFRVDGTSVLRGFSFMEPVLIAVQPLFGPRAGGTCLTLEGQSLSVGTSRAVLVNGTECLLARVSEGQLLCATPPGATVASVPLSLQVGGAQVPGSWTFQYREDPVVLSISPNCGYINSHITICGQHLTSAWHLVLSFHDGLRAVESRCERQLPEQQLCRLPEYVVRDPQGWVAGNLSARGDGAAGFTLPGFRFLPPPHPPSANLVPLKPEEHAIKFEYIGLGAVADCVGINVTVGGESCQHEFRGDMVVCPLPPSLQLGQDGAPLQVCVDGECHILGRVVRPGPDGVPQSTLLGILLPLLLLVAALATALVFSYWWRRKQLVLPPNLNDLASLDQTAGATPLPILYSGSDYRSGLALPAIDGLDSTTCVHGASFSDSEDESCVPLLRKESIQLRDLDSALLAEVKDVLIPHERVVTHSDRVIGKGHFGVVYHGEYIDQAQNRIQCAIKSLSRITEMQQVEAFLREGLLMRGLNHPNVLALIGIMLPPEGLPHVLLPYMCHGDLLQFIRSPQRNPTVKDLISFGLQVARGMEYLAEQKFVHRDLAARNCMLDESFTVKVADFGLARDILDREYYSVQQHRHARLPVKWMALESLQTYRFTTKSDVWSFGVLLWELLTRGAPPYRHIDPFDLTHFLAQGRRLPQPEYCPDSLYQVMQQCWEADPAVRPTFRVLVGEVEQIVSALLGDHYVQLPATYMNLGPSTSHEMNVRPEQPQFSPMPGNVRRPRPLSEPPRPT

SMILES	logD [1]	Kd [2]	microsomal CLint at 1 µM [3]	hepatocyte CLint at 1 µM [4]	IC50 [5]	further results
C[C@@H](c1ccccc1)n1cc(-c2cc(F)cc(F)c2)c(=O)[nH]c1=O	3.1	920 nM	7.68 µL/min/mg	133 µL/min/1e6 cells	–	–
CC(c1ccccc1)n1cc(-c2ccccc2)c(=O)[nH]c1=O (stereo unspecified)	2.7	3900 nM	50.1 µL/min/mg	185 µL/min/1e6 cells	–	–
CC(c1ccccc1)n1cc(-c2ccccn2)c(=O)[nH]c1=O (stereo unspecified)	2.2	4500 nM	12.6 µL/min/mg	300 µL/min/1e6 cells	–	–
CC(c1ccccc1)n1cc(-c2ncccn2)c(=O)[nH]c1=O (stereo unspecified)	0.85	2700 nM	< 3 µL/min/mg	4.67 µL/min/1e6 cells	–	–
CC(c1cccc(Cl)c1)n1cc(-c2cc(F)cc(F)c2)c(=O)[nH]c1=O (stereo unspecified)	3.8	1000 nM	27.4 µL/min/mg	177 µL/min/1e6 cells	–	–
CC(c1ccccc1)n1cc(-c2c(F)ccc3cn[nH]c23)c(=O)[nH]c1=O (stereo unspecified)	2.5	440 nM	7.35 µL/min/mg	28.3 µL/min/1e6 cells	2200 nM	–
CC(c1ccccc1)n1cc(-c2ccc3[nH]ccc3c2)c(=O)[nH]c1=O (stereo unspecified)	2.9	520 nM	25.4 µL/min/mg	217 µL/min/1e6 cells	–	–
O=c1[nH]c(=O)n(Cc2ccccc2)cc1-c1cc(F)cc(F)c1	3	> 100000 nM	20.6 µL/min/mg	76.7 µL/min/1e6 cells	–	–
CC(c1ccccc1)n1cc(-c2cc(F)cc(F)c2)c(=O)[nH]c1=O (stereo unspecified)	3.2	2500 nM	17.8 µL/min/mg	123 µL/min/1e6 cells	–	–
C#Cc1n[nH]c2c(-c3cn(C(C)c4ccccn4)c(=O)[nH]c3=O)cc(F)cc12 (stereo unspecified)	2.5	–	–	–	55 nM	Papp B→A at 10 µM [6]: 37.9 ×10⁻⁶ cm/s; Vdss [7]: 1.6 L/kg; hepatocyte CLint at 1 µM [8]: 1.29 µL/min/1e6 cells; K(p,uu,brain) [9]: 0.022; F [10]: 91%
C#Cc1n[nH]c2c(-c3cn(C(C)c4ccccc4)c(=O)[nH]c3=O)cccc12 (stereo unspecified)	3.2	–	12.8 µL/min/mg	9.1 µL/min/1e6 cells	40 nM	–
CC(c1ccccn1)n1cc(-c2cc(F)cc3c(C#N)n[nH]c23)c(=O)[nH]c1=O (stereo unspecified)	2.1	–	< 3 µL/min/mg	3.08 µL/min/1e6 cells	1200 nM	EC50 [11]: > 29800 nM
CC(c1ccccc1)n1cc(-c2cccc3cn[nH]c23)c(=O)[nH]c1=O (stereo unspecified)	2.4	240 nM	6.13 µL/min/mg	46.1 µL/min/1e6 cells	1300 nM	–
CC(c1ccccc1Cl)n1cc(-c2cc(F)cc(F)c2)c(=O)[nH]c1=O (stereo unspecified)	3.6	36000 nM	38.3 µL/min/mg	227 µL/min/1e6 cells	–	–
Cc1n[nH]c2c(-c3cn(C(C)c4ccccc4)c(=O)[nH]c3=O)cccc12 (stereo unspecified)	2.7	180 nM	17.8 µL/min/mg	37 µL/min/1e6 cells	430 nM	–
CC(c1ccc(F)cc1)n1cc(-c2cc(F)cc3cn[nH]c23)c(=O)[nH]c1=O (stereo unspecified)	2.7	–	5.61 µL/min/mg	11.9 µL/min/1e6 cells	530 nM	–
CC(c1ccccc1)n1cc(-c2cccc3c(C#N)n[nH]c23)c(=O)[nH]c1=O (stereo unspecified)	2.9	200 nM	32.7 µL/min/mg	41.4 µL/min/1e6 cells	500 nM	–
CC(c1ccccc1)n1cc(-c2cccc3c(F)n[nH]c23)c(=O)[nH]c1=O (stereo unspecified)	3	240 nM	32.4 µL/min/mg	49.4 µL/min/1e6 cells	810 nM	–
CC(c1ccccc1)n1cc(-c2cc(F)cc3cn[nH]c23)c(=O)[nH]c1=O (stereo unspecified)	2.5	120 nM	4.04 µL/min/mg	14 µL/min/1e6 cells	400 nM	–
CC(c1cccc(-c2c[nH]cn2)c1)n1cc(-c2cc(F)cc(F)c2)c(=O)[nH]c1=O (stereo unspecified)	3.2	520 nM	16.2 µL/min/mg	6.03 µL/min/1e6 cells	–	–
CC(c1ccc(F)cc1)n1cc(-c2cc(F)cc(F)c2)c(=O)[nH]c1=O (stereo unspecified)	–	1200 nM	17.4 µL/min/mg	26.8 µL/min/1e6 cells	–	–
CC(c1cccc(-c2cc[nH]n2)c1)n1cc(-c2cc(F)cc(F)c2)c(=O)[nH]c1=O (stereo unspecified)	3.5	2600 nM	5.04 µL/min/mg	24.7 µL/min/1e6 cells	–	–
C#Cc1n[nH]c2c(-c3cn([C@@H](C)c4ccccc4)c(=O)[nH]c3=O)cc(F)cc12	3.4	–	< 3 µL/min/mg	15 µL/min/1e6 cells	13 nM	inhibition [12]: 80%; inhibition [13]: 80%; inhibition [14]: < 50%; inhibition [15]: < 50%; EC50 [11]: 1170 nM
C[C@@H](c1ccc(F)cc1)n1cc(-c2cc(F)cc3c(C#N)n[nH]c23)c(=O)[nH]c1=O	3.3	–	–	–	75 nM	Papp B→A at 10 µM [6]: 25.6 ×10⁻⁶ cm/s; Vdss [7]: 1.5 L/kg; hepatocyte CLint at 1 µM [8]: 2.48 µL/min/1e6 cells; K(p,uu,brain) [9]: 0.014; F [10]: 96%
C#Cc1n[nH]c2c(-c3cn(C(C)c4ccccc4)c(=O)[nH]c3=O)cc(F)cc12 (stereo unspecified)	3.3	–	–	–	31 nM	Papp B→A at 10 µM [6]: 14.2 ×10⁻⁶ cm/s; Vdss [7]: 4.6 L/kg; hepatocyte CLint at 1 µM [8]: 4.27 µL/min/1e6 cells; EC50 [11]: 1950 nM; K(p,uu,brain) [9]: 0.1; F [10]: 100%
C[C@@H](c1ccc(F)cc1)n1cc(-c2cc(F)cc3cn[nH]c23)c(=O)[nH]c1=O	2.8	–	–	–	150 nM	Papp B→A at 10 µM [6]: 22.4 ×10⁻⁶ cm/s; Vdss [7]: 4.3 L/kg; hepatocyte CLint at 1 µM [8]: 1.81 µL/min/1e6 cells; K(p,uu,brain) [9]: 0.11; F [10]: 57%
CC(c1cccc(-c2cn[nH]c2)c1)n1cc(-c2cc(F)cc(F)c2)c(=O)[nH]c1=O (stereo unspecified)	3.4	800 nM	< 3 µL/min/mg	22.3 µL/min/1e6 cells	–	–
CC(c1cccc(-c2c[nH]cn2)c1)n1cc(-c2cccc3cn[nH]c23)c(=O)[nH]c1=O (stereo unspecified)	2.3	460 nM	8.92 µL/min/mg	5.84 µL/min/1e6 cells	–	–
CC(c1ccccc1)n1cc(-c2cc(F)cc3c(C#N)n[nH]c23)c(=O)[nH]c1=O (stereo unspecified)	3.1	87 nM	11.4 µL/min/mg	51.4 µL/min/1e6 cells	130 nM	–
CC(c1ccc(F)cc1)n1cc(-c2cc(F)cc3c(C#N)n[nH]c23)c(=O)[nH]c1=O (stereo unspecified)	3.2	–	< 3 µL/min/mg	4.4 µL/min/1e6 cells	310 nM	EC50 [11]: 18700 nM
